Source: article PMC4562501 (Anesthesiology, 2014)
Like-named read-outs stand apart in the source and are kept apart here.

How the values were obtained:
[1] = oral methadone; for Plasma Cmax/dose: control session, n=16, mean ± SD
clinical = conditions: both, human, in vivo, po, oral methadone; for Tmax: Plasma Tmax; for half-life: Plasma t½
healthy volunteers [2] = assay: Miosis; format: in vivo, human
[3] = Intravenous methadone pharmacokinetics, protocol 2; format: in vivo; conditions: both, human, plasma
P-gp [4] = conditions: well-known P-gp substrate, for comparison; cited from earlier work
P-gp [5] = conditions: Caco-2 cells; cited from earlier work
healthy volunteers [6] = assay: Thermal analgesia; conditions: oral methadone
healthy volunteers [7] = assay: Miosis; format: in vivo, human; conditions: IV methadone
healthy volunteers [8] = assay: Thermal analgesia; format: in vivo, human; conditions: IV methadone
[9] = racemic methadone; cited from earlier work
P-gp [10] = conditions: tariquidar 6 mg/kg, humans; cited from earlier work

CC=C1N(C)C(C)CC1(c1ccccc1)c1ccccc1 (stereo not shown) [EDDP, 2-ethylidene-1,5-dimethyl-3,3-diphenylpyrrolidine]
Increase of EDDP/methadone AUC ratio by cyclosporine [1]: 11-15%

CC=C1N(C)C(C)CC1(c1ccccc1)c1ccccc1 (stereo not shown) [R-EDDP, 2-ethylidene-1,5-dimethyl-3,3-diphenylpyrrolidine]
Tmax (clinical; control): 2.5 ± 0.5 h
Tmax (clinical; cyclosporine-treated): 4.1 ± 1.1 h
half-life (clinical; control): 2.38 ± 0.917 days
half-life (clinical; cyclosporine-treated): 3.04 ± 1.58 days
Plasma AUC0-96/dose ([1]; control): 6.7 ± 1.6 ng·h/mL/mg
Urine %dose eliminated (0-24 h) ([1]; control): 4.2 ± 2.3 %dose
Urine %dose eliminated (0-96 h) ([1]; control): 9 ± 4 %dose
Plasma Cmax/dose [1]: 0.24 ± 0.09 ng/mL/mg
Plasma AUC0-96/dose ([1]; cyclosporine-treated): 8.2 ± 1.9 ng·h/mL/mg
Urine %dose eliminated (0-24 h) ([1]; cyclosporine-treated): 4.2 ± 1.8 %dose
Urine %dose eliminated (0-96 h) ([1]; cyclosporine-treated): 10 ± 4 %dose

CCC(=O)C(C[C@@H](C)N(C)C)(c1ccccc1)c1ccccc1 [R-Methadone, R-methadone]
Plasma concentration at which miosis was detectable (average) (healthy volunteers [2]; plasma R-methadone): 5 ng/mL

CC=C1N(C)C(C)CC1(c1ccccc1)c1ccccc1 (stereo not shown) [S-EDDP, 2-ethylidene-1,5-dimethyl-3,3-diphenylpyrrolidine]
Plasma AUC0-96/dose ([1]; control): 11.6 ± 3.2 ng·h/mL/mg
Plasma Tmax ([1]; control): 2.3 ± 0.7 h
Plasma t½ ([1]; control): 87 ± 25 h
Urine %dose eliminated (0-24 h) ([1]; control): 7.2 ± 3.8 %dose
Urine %dose eliminated (0-96 h) ([1]; control): 15 ± 6 %dose
Plasma Cmax/dose [1]: 0.35 ± 0.17 ng/mL/mg
Plasma AUC0-96/dose ([1]; cyclosporine-treated): 14.4 ± 3.5 ng·h/mL/mg
Plasma t½ ([1]; cyclosporine-treated): 102 ± 39 h
Urine %dose eliminated (0-24 h) ([1]; cyclosporine-treated): 7.4 ± 3.7 %dose
Urine %dose eliminated (0-96 h) ([1]; cyclosporine-treated): 16 ± 8 %dose
Plasma AUC0-96 (EDDP/methadone) ratio (cyclosporine/control) ([1]; geometric mean and 90% confidence interval): 1.15 (1.04, 1.27)

CCC(=O)C(C[C@H](C)N(C)C)(c1ccccc1)c1ccccc1 [S-Methadone, S-methadone]
Tmax (clinical; control): 2 ± 0.5 h
Tmax (clinical; cyclosporine-treated): 4.6 ± 2.3 h
AUC(0-t) [3]: 282 ± 68 ng·h/mL
AUC(0-t) ([3]; 0.1 mg/kg): 276 ± 47 ng·h/mL
Cmax ([3]; 0.1 mg/kg): 32.2 ± 7.9 ng/mL

CN(C)C(=O)C(CCN1CCC(O)(c2ccc(Cl)cc2)CC1)(c1ccccc1)c1ccccc1 [loperamide]
Transport ratio (P-gp [4]): exceeds 10

CCC(=O)C(CC(C)N(C)C)(c1ccccc1)c1ccccc1 (stereo not shown) [methadone]
Reduction of rhodamine transport (P-gp [5]): 25%
Maximally tolerated temperature (method of limits) (healthy volunteers [6]): increased the maximally tolerated temperature
Verbal analog ratings to discrete temperatures (healthy volunteers [6]): small and brief analgesic effect
Miotic response (average) (healthy volunteers [7]): 2.5 mm
Peak miosis (healthy volunteers [7]; controls): 3.1 ± 1.0 mm
Peak miosis (healthy volunteers [7]; cyclosporine-treated subjects): 3.2 ± 0.8 mm
Analgesic effect (thermal) (healthy volunteers [8]): minimal analgesic effects
Miotic response (average) (healthy volunteers [2]; oral methadone): 2 mm
Peak miosis (dose-adjusted) (healthy volunteers [2]; oral methadone, controls): 1.4 ± 0.4 mm/mg
Peak miosis (dose-adjusted) (healthy volunteers [2]; oral methadone, cyclosporine-treated subjects): 1.3 ± 0.5 mm/mg
Median minimal effective (postoperative) analgesia threshold [9]: 31 ng/mL

COc1cc2c(cc1OC)CN(CCc1ccc(NC(=O)c3cc(OC)c(OC)cc3NC(=O)c3cnc4ccccc4c3)cc1)CC2 [tariquidar]
Increase in brain concentrations of (R)-[11C]verapamil (P-gp [10]): 2.5 fold
Increase in brain concentrations of [11C]N-desmethyl-loperamide (P-gp [10]): 4 fold
